According to publication PMC12641067 (Clinical Pharmacology and Therapeutics, 2025):
Where two headings read alike, the source gives them in different places.

Columns and labels:
[1] = Population PK model of rifampicin (plasma data); format: in vivo, human; conditions: population estimate (RSE%)
Method: Individual plasma and urine data of GCDCA‐S in healthy subjects were obtained from three clinical studies. Tatosian et al.[18] (study #1) consisted of two occasions: on both occasions, a microdose probe drug cocktail for multiple clinically relevant transporters was administered, with a single oral dose of 600 mg rifampicin co‐administered on the second occasion (n = 6; 3 males, 3 females). Willemin et al.[22] (study #2) was a two‐phase, cross‐over study with a 21‐day washout period between the two phases. […] Study #3 consists of unpublished data from the same study design as reported by Willemin et al. (n = 12; 12 males).[22]
Models were evaluated using visual predictive check (VPC) plots, goodness‐of‐fit (GOF) plots, parameter uncertainty, and changes in objective function. Model visualization and simulations were conducted in MATLAB 2024a (MathWorks, Natick, MA, USA) and Graph Pad Prism 10.2.2 (GraphPad software, La Jolla, CA, USA).
The structural model for rifampicin was based on our previous report,[33] and represents a one‐compartment model with zero‐order absorption and linear elimination.
The models for rifampicin, probenecid, and GCDCA‐S incorporated both inter‐individual variability for a number of model parameters (assuming log‐normal distribution) and residual unexplained variability (using a combination of proportional and additive error models).

OATP1B1 [2] = tested on: OATP1B1; set-up: method as in ref 18 (a number printed in a supplementary file, which may have a reference list of its own: not looked up in the article's list); conditions: HEK293, read-out: In vitro OATP1B1 IC50, cited from earlier work
OATP1B3 [3] = target: T1, OATP1B3 (Homo sapiens, UniProt Q9NPD5); set-up: method as in ref 18 (a number printed in a supplementary file, which may have a reference list of its own: not looked up in the article's list); conditions: HEK293, read-out: In vitro OATP1B3 IC50, cited from earlier work
T1 sequence (Q9NPD5 1-702): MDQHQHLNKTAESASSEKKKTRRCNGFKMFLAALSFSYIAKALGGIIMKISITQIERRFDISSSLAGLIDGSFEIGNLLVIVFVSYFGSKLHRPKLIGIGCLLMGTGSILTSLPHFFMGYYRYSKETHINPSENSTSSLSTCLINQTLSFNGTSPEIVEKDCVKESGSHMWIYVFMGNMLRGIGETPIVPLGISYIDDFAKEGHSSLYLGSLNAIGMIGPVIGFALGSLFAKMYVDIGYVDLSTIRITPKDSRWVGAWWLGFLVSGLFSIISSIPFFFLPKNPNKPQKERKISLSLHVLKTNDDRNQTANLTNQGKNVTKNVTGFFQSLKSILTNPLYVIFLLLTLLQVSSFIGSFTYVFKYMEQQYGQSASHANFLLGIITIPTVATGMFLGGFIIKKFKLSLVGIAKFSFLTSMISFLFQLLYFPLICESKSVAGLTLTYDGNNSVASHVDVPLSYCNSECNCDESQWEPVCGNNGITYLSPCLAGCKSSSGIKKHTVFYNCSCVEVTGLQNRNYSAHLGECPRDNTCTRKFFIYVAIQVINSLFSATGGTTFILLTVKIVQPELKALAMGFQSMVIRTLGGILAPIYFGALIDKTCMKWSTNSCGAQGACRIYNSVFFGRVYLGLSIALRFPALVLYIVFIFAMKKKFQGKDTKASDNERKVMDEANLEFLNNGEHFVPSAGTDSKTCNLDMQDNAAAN

OATP1B = conditions: substrate CP-I, 600 mg, read-out: In vivo OATP1B Ki,u, cited from earlier work
OATP1B1 [4] = tested on: OATP1B1; set-up: method as in ref 22 (a number printed in a supplementary file, which may have a reference list of its own: not looked up in the article's list); conditions: substrate CP-I, 150 – 600 mg, read-out: In vivo OATP1B Ki,u; cited from earlier work
OATP1B3 [5] = target: T1, OATP1B3; test: In vivo OATP1B3 inhibition estimated by POP-PK modeling of GCDCA-S data; set-up: hepatic OATP1B3 and renal OAT3 transporters; from tissue; host or cells: liver (hepatocytes) of healthy human subjects, in vivo; conditions: GCDCA-S as substrate, rifampicin 600 mg, population estimate (RSE%), read-out: K i,unbound,OATP1B3

clearance ([1]; both sexes, human, plasma, oral, 600 mg, read-out: CL RIF (converted)): 112 mL/min
Tk0 RIF ([1]; duration of zero-order absorption): 0.84 (41) h
V RIF [1]: 35 (5) L
Tlag RIF ([1]; single oral dose 600 mg): 0.56 (20) h
Ki (OATP1B3 [5]): 9 nM
Structure (SMILES): CO[C@H]1/C=C/O[C@@]2(C)Oc3c(C)c(O)c4c(O)c(c(/C=N/N5CCN(C)CC5)c(O)c4c3C2=O)NC(=O)/C(C)=C\C=C\[C@H](C)[C@H](O)[C@@H](C)[C@@H](O)[C@@H](C)[C@H](OC(C)=O)[C@@H]1C [RIF, rifampicin]
IC50 (OATP1B1 [2]; substrate CP-I): 610 nM
IC50 (OATP1B1 [2]; substrate GCDCA-S): 170 nM
IC50 (OATP1B3 [3]; substrate CP-I): 570 nM
IC50 (OATP1B3 [3]; substrate GCDCA-S): 280 nM
Ki (OATP1B; ref 8): 130 nM
Ki (OATP1B; ref 19): 20 nM
Ki (OATP1B; ref 21): 100 nM
Ki (OATP1B; ref 23): 38 nM
Ki (OATP1B; ref 24): 53 nM
Ki (OATP1B1 [4]): 140 nM
